Test results taken from ChEMBL document CHEMBL3784982, “Novel dihydropyrazole-chromen: Design and modulates hTERT inhibition proliferation of MGC-803” (Eur J Med Chem, 2016).
Blank lines part the entries; values can stand above or below the compound they belong to. Activity calls are given as the source filed them. The rule behind the calls is not given here.

Key:
[1] = Inhibition of human TERT mRNA expression in human MGC803 cells at […] after 48 hrs by RT-PCR method; assay type: functional, cell-based; conditions: MGC-803
[2] = biological target: Telomerase reverse transcriptase (Homo sapiens) (UniProt O14746); assay: Inhibition of human TERT-regulated Wnt/beta-catenin signalling in human MGC803 cells assessed as decrease in c-myc mRNA expression at […] after 48 hrs by RT-PCR method; assay type: cell-based; conditions: MGC-803
[3] = biological target: Telomerase reverse transcriptase (Homo sapiens) (UniProt O14746); assay: Inhibition of human TERT-regulated Wnt/beta-catenin signalling in human MGC803 cells assessed as decrease in beta-catenin mRNA expression at […] after 48 hrs by RT-PCR method; assay type: cell-based; conditions: MGC-803
[4] = biological target: Telomerase reverse transcriptase (Homo sapiens) (UniProt O14746); assay: Inhibition of human TERT-regulated Wnt/beta-catenin signalling in human MGC803 cells assessed as decrease in c-myc protein expression at […] after 48 hrs by Western blotting method; assay type: cell-based; conditions: MGC-803
[5] = biological target: Telomerase reverse transcriptase (Homo sapiens) (UniProt O14746); assay: Inhibition of human TERT-regulated Wnt/beta-catenin signalling in human MGC803 cells assessed as decrease in cyclin-D1 mRNA expression at […] after 48 hrs by RT-PCR method; assay type: cell-based; conditions: MGC-803
[6] = biological target: Telomerase reverse transcriptase (Homo sapiens) (UniProt O14746); assay: Inhibition of human TERT-regulated Wnt/beta-catenin signalling in human MGC803 cells assessed as decrease in beta-catenin protein expression at […] after 48 hrs by Western blotting method; assay type: cell-based; conditions: MGC-803
[7] = biological target: Telomerase reverse transcriptase (Homo sapiens) (UniProt O14746); assay: Inhibition of human TERT protein expression in human MGC803 cells at […] after 48 hrs by Western blotting method; assay type: cell-based; conditions: MGC-803
[8] = biological target: Telomerase reverse transcriptase (Homo sapiens) (UniProt O14746); assay: Inhibition of human TERT-regulated Wnt/beta-catenin signalling in human MGC803 cells assessed as decrease in cyclin D1 protein expression at […] after 48 hrs by Western blotting method; assay type: cell-based; conditions: MGC-803
[9] = biological target: Telomerase reverse transcriptase (Homo sapiens) (UniProt O14746); assay: Inhibition of human TERT expressed in human MGC803 cells assessed as TERT-regulated Wnt/beta-catenin signalling by measuring decrease in cyclin D1 mRNA expression after 48 hrs by RT-PCR method; assay type: cell-based; conditions: MGC-803
[10] = biological target: Telomerase reverse transcriptase (Homo sapiens) (UniProt O14746); assay: Inhibition of human TERT expressed in human MGC803 cells assessed as TERT-regulated Wnt/beta-catenin signalling by measuring decrease in beta-catenin mRNA expression after 48 hrs by RT-PCR method; assay type: cell-based; conditions: MGC-803
[11] = biological target: Telomerase reverse transcriptase (Homo sapiens) (UniProt O14746); assay: Inhibition of human TERT-regulated Wnt/beta-catenin signalling in human MGC803 cells assessed as downregulation of c-myc protein expression after 48 hrs by Western blotting method; assay type: cell-based; conditions: MGC-803
[12] = biological target: Telomerase reverse transcriptase (Homo sapiens) (UniProt O14746); assay: Inhibition of human TERT expressed in human MGC803 cells assessed as TERT-regulated Wnt/beta-catenin signalling by measuring decrease in beta-catenin protein expression after 48 hrs by Western blotting method; assay type: cell-based; conditions: MGC-803
[13] = biological target: Telomerase reverse transcriptase (Homo sapiens) (UniProt O14746); assay: Inhibition of human TERT-regulated Wnt/beta-catenin signalling in human MGC803 cells assessed as downregulation of c-myc mRNA expression by RT-PCR method; assay type: cell-based; conditions: MGC-803
[14] = biological target: Telomerase reverse transcriptase (Homo sapiens) (UniProt O14746); assay: Inhibition of human TERT protein expression in human MGC803 cells at 1 uM after 48 hrs by Western blotting method; assay type: cell-based; conditions: MGC-803
[15] = Antiproliferative activity against human PC3 cells after 48 hrs by MTT assay; assay type: functional, cell-based; conditions: PC-3, 48 h
[16] = biological target: Telomerase reverse transcriptase (Homo sapiens) (UniProt O14746); assay: Inhibition of human TERT expressed in human MGC803 cells assessed as TERT-regulated Wnt/beta-catenin signalling by measuring decrease in c-myc mRNA expression after 48 hrs by RT-PCR method; assay type: cell-based; conditions: MGC-803
[17] = Antiproliferative activity against human SGC7901 cells after 48 hrs by MTT assay; assay type: functional, cell-based; conditions: SGC-7901, 48 h
Bcap37 = assay: Antiproliferative activity against human Bcap37 cells after 48 hrs by MTT assay; assay type: functional, cell-based; conditions: Bcap37, 48 h
[18] = biological target: Telomerase reverse transcriptase (Homo sapiens) (UniProt O14746); assay: Inhibition of human TERT-regulated Wnt/beta-catenin signalling in human MGC803 cells assessed as downregulation of cyclin D1 mRNA expression by RT-PCR method; assay type: cell-based; conditions: MGC-803
[19] = Cytotoxicity against human GES-1 cells after 48 hrs by MTT assay; assay type: cell-based; conditions: GES1, 48 h
[20] = biological target: Telomerase reverse transcriptase (Homo sapiens) (UniProt O14746); assay: Inhibition of human TERT expressed in human MGC803 cells assessed as TERT-regulated Wnt/beta-catenin signalling by measuring decrease in c-myc protein expression after 48 hrs by Western blotting method; assay type: cell-based; conditions: MGC-803
[21] = biological target: Telomerase reverse transcriptase (Homo sapiens) (UniProt O14746); assay: Inhibition of human TERT expressed in human MGC803 cells assessed as TERT-regulated Wnt/beta-catenin signalling by measuring decrease in cyclin D1 protein expression after 48 hrs by Western blotting method; assay type: cell-based; conditions: MGC-803
[22] = Antiproliferative activity against human MGC803 cells after 48 hrs by MTT assay; assay type: functional, cell-based; conditions: MGC-803, 48 h
[23] = biological target: Telomerase reverse transcriptase (Homo sapiens) (UniProt O14746); assay: Inhibition of human TERT-regulated Wnt/beta-catenin signalling in human MGC803 cells assessed as downregulation of cyclin D1 protein expression after 48 hrs by Western blotting method; assay type: cell-based; conditions: MGC-803
[24] = Cytotoxicity against human L02 cells after 48 hrs by MTT assay; assay type: cell-based; conditions: L02, 48 h
MGC-803 = assay: Induction of cell cycle arrest in human MGC803 cells assessed as accumulation at G0/G1 phase at 1 uM after 48 hrs by propidium iodide staining-based flow cytometry (reference value: 32.7%); assay type: functional
[25] = biological target: Telomerase reverse transcriptase (Homo sapiens) (UniProt O14746); assay: Inhibition of human TERT-regulated Wnt/beta-catenin signalling in human MGC803 cells assessed as downregulation of beta-catenin protein expression after 48 hrs by Western blotting method; assay type: cell-based; conditions: MGC-803
[26] = biological target: Telomerase reverse transcriptase (Homo sapiens) (UniProt O14746); assay: Inhibition of human TERT-regulated Wnt/beta-catenin signalling in human MGC803 cells assessed as downregulation of beta-catenin mRNA expression by RT-PCR method; assay type: cell-based; conditions: MGC-803
[27] = biological target: Telomerase reverse transcriptase (Homo sapiens) (UniProt O14746); assay: Inhibition of human TERT protein expression in human MGC803 cells at 40 umol/L measured at 48 hrs by Western blotting method; assay type: cell-based; conditions: MGC-803
[28] = biological target: Telomerase reverse transcriptase (Homo sapiens) (UniProt O14746); assay: Inhibition of human TERT-regulated Wnt/beta-catenin signalling in human MGC803 cells assessed as decrease in c-myc protein expression at 40 umol/L measured at 48 hrs by Western blotting method; assay type: cell-based; conditions: MGC-803
[29] = biological target: Telomerase reverse transcriptase (Homo sapiens) (UniProt O14746); assay: Inhibition of human TERT-regulated Wnt/beta-catenin signalling in human MGC803 cells assessed as decrease in cyclin D1 protein expression at 40 umol/L measured at 48 hrs by Western blotting method; assay type: cell-based; conditions: MGC-803
[30] = biological target: Telomerase reverse transcriptase (Homo sapiens) (UniProt O14746); assay: Inhibition of human TERT-regulated Wnt/beta-catenin signalling in human MGC803 cells assessed as decrease in beta-catenin protein expression at 40 umol/L measured at 48 hrs by Western blotting method; assay type: cell-based; conditions: MGC-803
[31] = biological target: Telomerase reverse transcriptase (Homo sapiens) (UniProt O14746); assay: Inhibition of human TERT-regulated Wnt/beta-catenin signalling in human MGC803 cells assessed as decrease in beta-catenin mRNA expression at 40 umol/L measured at 48 hrs by RT-PCR method; assay type: cell-based; conditions: MGC-803
[32] = biological target: Telomerase reverse transcriptase (Homo sapiens) (UniProt O14746); assay: Inhibition of human TERT-regulated Wnt/beta-catenin signalling in human MGC803 cells assessed as decrease in c-myc mRNA expression at 40 umol/L measured at 48 hrs by RT-PCR method; assay type: cell-based; conditions: MGC-803
[33] = Inhibition of human TERT mRNA expression in human MGC803 cells at 40 umol/L measured at 48 hrs by RT-PCR method; assay type: functional, cell-based; conditions: MGC-803
[34] = biological target: Telomerase reverse transcriptase (Homo sapiens) (UniProt O14746); assay: Inhibition of human TERT-regulated Wnt/beta-catenin signalling in human MGC803 cells assessed as decrease in cyclin D1 mRNA expression at 40 umol/L measured at 48 hrs by RT-PCR method; assay type: cell-based; conditions: MGC-803

Sequence of Telomerase reverse transcriptase (Homo sapiens) (O14746 whole entry): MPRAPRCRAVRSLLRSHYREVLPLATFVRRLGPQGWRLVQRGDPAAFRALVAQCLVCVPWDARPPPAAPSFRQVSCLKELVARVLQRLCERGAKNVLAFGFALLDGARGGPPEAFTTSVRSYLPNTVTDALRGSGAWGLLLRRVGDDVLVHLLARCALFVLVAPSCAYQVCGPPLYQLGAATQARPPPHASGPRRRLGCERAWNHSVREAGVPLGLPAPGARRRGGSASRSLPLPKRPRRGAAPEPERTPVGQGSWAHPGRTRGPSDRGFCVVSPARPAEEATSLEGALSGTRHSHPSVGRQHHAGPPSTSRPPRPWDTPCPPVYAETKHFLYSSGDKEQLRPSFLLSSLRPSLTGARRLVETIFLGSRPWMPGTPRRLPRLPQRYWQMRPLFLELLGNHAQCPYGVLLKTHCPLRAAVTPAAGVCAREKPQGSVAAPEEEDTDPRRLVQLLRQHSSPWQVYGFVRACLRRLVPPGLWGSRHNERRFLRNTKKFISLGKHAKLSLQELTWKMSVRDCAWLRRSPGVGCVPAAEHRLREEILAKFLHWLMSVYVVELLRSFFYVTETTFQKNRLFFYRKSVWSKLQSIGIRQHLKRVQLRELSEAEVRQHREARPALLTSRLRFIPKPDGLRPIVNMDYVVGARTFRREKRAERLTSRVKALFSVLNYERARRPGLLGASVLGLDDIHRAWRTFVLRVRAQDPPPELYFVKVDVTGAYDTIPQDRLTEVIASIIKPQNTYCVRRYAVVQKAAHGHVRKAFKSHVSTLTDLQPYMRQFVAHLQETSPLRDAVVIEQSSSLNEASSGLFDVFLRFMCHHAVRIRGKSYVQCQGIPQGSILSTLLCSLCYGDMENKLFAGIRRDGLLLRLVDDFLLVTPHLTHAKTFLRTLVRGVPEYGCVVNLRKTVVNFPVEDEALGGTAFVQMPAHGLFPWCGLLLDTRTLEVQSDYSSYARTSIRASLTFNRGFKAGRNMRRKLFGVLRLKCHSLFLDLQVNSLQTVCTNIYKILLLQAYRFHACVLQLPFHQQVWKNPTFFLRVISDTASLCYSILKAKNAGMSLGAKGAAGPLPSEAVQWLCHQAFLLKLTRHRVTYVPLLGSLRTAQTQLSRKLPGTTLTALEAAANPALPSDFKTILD

inhibition [2]: Active
inhibition [3]: Active
inhibition [4]: Active
inhibition [5]: Active
inhibition [6]: Active
inhibition [7]: Active
inhibition [8]: Active
SMILES: Cc1cn([C@H]2C[C@H](N=[N+]=[N-])[C@@H](CO)O2)c(=O)[nH]c1=O
inhibition [1]: Active

inhibition [9]: Active
inhibition [10]: Active
inhibition [11]: Active
inhibition [12]: Active
inhibition [13]: Active
inhibition [14]: Active
inhibition [16]: Active
inhibition [18]: Active
inhibition [20]: Active
inhibition [21]: Active
inhibition [23]: Active
inhibition [25]: Active
inhibition [26]: Active
SMILES: O=C(CN1CCCCC1)N1N=C(c2ccccc2)CC1c1cc2ccccc2oc1=O (stereo not given)
IC50 [15]: 4.12 µM
IC50 [17]: 0.46 µM
IC50 (Bcap37): 5.3 µM
IC50 [19]: 2300 µM
IC50 [22]: 1.41 µM
IC50 [24]: 2500 µM
Activity (MGC-803): 50.6%

inhibition [27]: Active
inhibition [28]: Active
inhibition [29]: Active
inhibition [30]: Active
inhibition [31]: Active
inhibition [32]: Active
inhibition [34]: Active
SMILES: CCc1ccc(-c2nc(CSCC(=O)NCCc3ccccc3)c(C)o2)cc1
inhibition [33]: Active

SMILES: COc1cccc2c1C(=O)c1c(O)c3c(c(O)c1C2=O)C[C@@](O)(C(=O)CO)C[C@@H]3O[C@H]1C[C@H](N)[C@H](O)[C@H](C)O1 [DOXORUBICIN]
IC50 [15]: 1.49 µM
IC50 [17]: 0.8 µM
IC50 (Bcap37): 1.19 µM
IC50 [22]: 1.01 µM
